Columns and labels:
TSLP = test: Auricular tissue TSLP ELISA, atopic dermatitis mice; assay type: in vivo, mouse; settings: day 7, topical application, control 317, vehicle 1533
Method: (§1) MC903 at 2 nM was applied to the right auricle of a 6-week-old male Balb/c (Japan SLC Inc.). Starting 8 h later, 5% norathyriol aqueous solution (1 mL of ethanol containing […] of norathyriol), betamethasone ointment, and delgocitinib ointment were applied to the auricle for 7 days. The measurement of auricular skin swelling was calculated by calipers. The day on which the first application of the compound was made was defined as day 0. Betamethasone and delgocitinib are currently in clinical use in atopic dermatitis and were used as control drugs in this example.
The mouse TSLP ELISA kit (R&D) was used for this measurement.

Th17 cells = test: Th17 cell activation in inflammation-induced mouse model (IL-17A flow cytometry); assay type: in vivo; settings: DBA/1J mice, Freund's complete adjuvant + bovine type2 collagen; oral 10 mg/kg daily 20 days; thymus cells; vs vehicle group
Method: (§2) Equal volume mixtures of Freund's complete adjuvant and Bovine type2 collagen were administered to 6-week-old male DBA/1J mice (Japan SLC Inc.) at 0.1 mL (day 0 of the study). 21 days later, DBA/1J mice were again injected with 0.1 mL of the above mixture for secondary immunization. After the second immunization, mice were orally treated with 10 mg/kg of mangiferin 8a and 10 mg/kg of norathyriol daily for 20 days. 20 days later, thymus glands were harvested from mice and stained with anti-CD4 and anti-IL-17A antibodies, which are Th17 cell markers, and expression of IL-17A (CD4 positive) was measured using BD LSRFortessa.

mouse macrophages = test: LPS-stimulated macrophage proliferation (trypan blue); assay type: cell-based; settings: 10 μM compound, 10 μg/mL LPS 3 days, control 10.65×10^4, LPS 19×10^4
Method: The inhibitory effect of the compound on macrophage cell proliferation was examined using mouse macrophages.
Macrophages collected from mice were cultured in RPMI 1640 medium for 1 day. Then, 10 μM mangiferin 8a and 10 μM norathyriol were added to macrophages, and after 1 day of culture, 10 μg/mL of lipopolysaccharide (LPS) was added to each for 3 days. After 3 days of incubation, the number of viable cells was determined by the trypan blue dye method. Note that LPS was used as an allergic inflammation inducer.
Referring to FIG. 49, the horizontal axis indicates treatment with each compound and the vertical axis indicates cell count (1×10^4 cells/mL). Only 0.5% DMSO in PBS, which was used to dissolve the reagent (compound), was added as control. The LPS group is referred to as the LPS group with 10 μg/mL LPS, the mangiferin 8a group is referred to as the mangiferin 8a group with LPS and mangiferin 8a, and the norathyriol group is referred to as the norathyriol group with LPS and norathyriol.

IL-5 = test: Auricular tissue IL-5 ELISA, atopic dermatitis mice; assay type: in vivo, mouse; settings: day 7, topical application, control 15, vehicle 32
Method: as §1
The mouse IL-5 ELISA kit (R&D) was used for this measurement.

[1] = system: Balb/c mice with atopic dermatitis (MC903 applied to the auricle); test: Auricular swelling in MC903-induced atopic dermatitis mice; assay type: in vivo, mouse
Method: as §1
Those without MC903 or norathyriol are called the control group, those with MC903 are called the vehicle group, those with 5% norathyriol aqueous are called the 5% norathyriol-applied group, those with betamethasone ointment are called the betamethasone-applied group, and those with delgocitinib ointment is referred to as the delgocitinib-applied group.
Solid white circles indicate the control group (labeled “control”). Solid black squares indicate the vehicle group (labeled “vehicle”), dotted black diamonds indicate the 5% norathyriol aqueous application group (labeled “MC903+5% norathyriol”), dashed black crosses indicate the betamethasone application group (labeled “MC903+betamethasone ointment”), and single-dotted black dots indicate the delgocitinib application group (labeled “MC903+delgocitinib ointment”).

Th1 cells = test: Th1 cell activation in inflammation-induced mouse model (IFNγ flow cytometry); assay type: in vivo; settings: DBA/1J mice, Freund's complete adjuvant + bovine type2 collagen; oral 10 mg/kg daily 20 days; thymus cells; vs vehicle group
Method: as §2, with “anti-IFNγ” for “anti-IL-17A”, “Th1” for “Th17”, “IFNγ” for “IL-17A”

[2] = system: Monocytes collected from mice; test: LPS-induced macrophage activation (CD11b/F4/80 flow cytometry); assay type: cell-based, mouse; settings: 10 μM compound, 10 μg/mL LPS, 10 days; control 6.38, LPS only 26.8
Method: Monocytes collected from mice were cultured in RPMI 1640 medium for 1 day. Then, 10 μM mangiferin 8a and 10 μM norathyriol were added to monocytes, and after 1 day of culture, 10 μg/mL of LPS was added, followed by 10 days of culture. After 10 days of culture, cells were stained with anti-CD11b and anti-F4/80 antibodies, markers of macrophages, and expression of CD11b and F4/80 was measured using BD LSRFortessa. Note that CD11b positive and F4/80 positive indicate activated macrophages.

IL-4 = test: Auricular tissue IL-4 ELISA, atopic dermatitis mice; assay type: in vivo, mouse; settings: day 7, topical application, control 56, vehicle 152
Method: as §1
The mouse IL-4 ELISA kit (R&D) was used for this measurement.

IL-6 = test: LPS-stimulated IL-6 secretion in macrophages (ELISA); assay type: cell-based, mouse; settings: 10 μM compound, 10 μg/mL LPS 2 days, control 13.13, LPS 321.13
Method: Mouse macrophages were used to examine the inhibition of compounds on IL-6 secretion in LPS stimulation.
Mouse macrophages were cultured in RPMI 1640 medium for 1 day. Then, 10 μM mangiferin 8a and 10 μM norathyriol were added to macrophages, and after 1 day of culture, 10 μg/mL of LPS was added to each, followed by 2 days of culture. After these samples were incubated for 2 days, the culture supernatant was collected and IL-6 secretion was measured by enzyme-linked immunosorbent assay (ELISA). The mouse IL-6 ELISA kit (R&D) was used for this measurement.

TNFα = test: BAFF-induced TNFα secretion in B cells (ELISA); assay type: cell-based, mouse; settings: DBA/1J spleen B cells; 10 μM compound, 100 ng/mL BAFF, 7 days; control 11.34, BAFF only 230.64
Method: Spleens were harvested from 6-week-old male DBA/1J mice and B cells were isolated. After isolation, the cells were cultured in RPMI 1640 medium for 1 day. Then, 10 μM mangiferin 8a and 10 μM norathyriol were added to B cells, and 100 ng/mL of BAFF was added to each 3 h later, and the cells were cultured for 7 days. After 7 days of culture, the culture supernatant was collected and TNFα secretion was measured by enzyme-linked immunosorbent assay (ELISA). This assay was performed using a mouse TNFα ELISA kit (R&D).

`O=c1c2cc(O)c(O)cc2oc2cc(O)cc(O)c12` [norathyriol, 1,3,6,7-tetrahydroxyxanthone] was tested, and the TSLP secretion (TSLP) was 1026 pg/mL, the “IL-17A expression (CD4 positive)” value (Th17 cells) was “markedly reduced” and the “number of viable cells (cell count)” value (mouse macrophages) was 7.5×10^4 cells/mL. For the same compound, the IL-5 secretion (IL-5) was 14 pg/mL, the auricular skin swelling ([1]; male Balb/c, MC903 on right auricle, 5% norathyriol aqueous solution, betamethasone ointment or delgocitinib ointment applied to auricle for 7 days, vs vehicle group) was “swelling was significantly reduced” and the “swelling and redness of auricular skin (photograph)” value ([1]; right auricle at day 7, topical 5% norathyriol aqueous, betamethasone ointment, delgocitinib ointment) was “showed some redness, but not as much as in the target group”. For the same compound, the “IFNγ expression (CD4 positive)” value (Th1 cells) was “markedly reduced”, the “CD11b positive and F4/80 positive population (activated macrophages)” value [2] was 11.6% and the IL-4 secretion (IL-4) was 94 pg/mL. The IL-6 secretion (IL-6) was 64.13 pg/mL and the TNFα secretion (TNFα) was 45.07 pg/mL.
